The target of the assay is T1, RlmJ (Escherichia coli, UniProt P37634).
T1 sequence (P37634 1-280): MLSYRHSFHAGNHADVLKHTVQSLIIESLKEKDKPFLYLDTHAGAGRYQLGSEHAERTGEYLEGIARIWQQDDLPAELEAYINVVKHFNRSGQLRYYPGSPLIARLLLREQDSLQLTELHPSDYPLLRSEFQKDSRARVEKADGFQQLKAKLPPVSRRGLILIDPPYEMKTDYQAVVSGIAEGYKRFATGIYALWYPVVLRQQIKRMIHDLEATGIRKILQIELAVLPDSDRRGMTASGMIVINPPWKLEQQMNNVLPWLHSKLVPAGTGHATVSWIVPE
The experiment in a line: ITC and DSF. The assay is classed as binding.

As a reminder, the Kd is a measure of binding affinity in units of concentration. Take `Nc1ncnc2c1ncn2[C@@H]1O[C@H](C[C@@H](N)CC[C@H](N)C(=O)O)[C@@H](O)[C@H]1O` [sinefungin]: the Kd worked out at 1700 ± 200 nM.

Values taken from paper PMC6546350 (RNA Biology, 2019).
